Patent US8735395B2, “Protease inhibitors” (Medivir AB, priority 2008, dated 2014)

How the values were obtained:
human cathepsin S = human cathepsin S (Homo sapiens (Human), UniProt P25774); test: Cathepsin S Ki determination; format: biochemical
Description: 280 μl/well of 12.5% DMSO are added to rows B-H of two columns of a 96 deep well polypropylene plate. […] 200 μl/well of assay buffer is added to columns 1 and 6. […] Mix row A using a multichannel pipette and double dilute to row G. Mix row H and read in the fluorescent spectrophotometer. […] The second test compound is added to column 6 of the top row, the third to column 1 of the second row etc. Add 1 μl of comparator to column 6 of the bottom row. Mix column 1 and double dilute to column 5. Mix column 6 and double dilute to column 10. Using an 8-channel multistepping pipette set to 5×10 μl, distribute 10 μl/well of substrate to the 384 well assay plate. Distribute the first column of the substrate dilution plate to all columns of the assay plate starting at row A. The tip spacing of the multichannel pipette will correctly skip alternate rows. Distribute the second column to all columns starting at row B. Using a 12-channel multistepping pipette set to 4×10 μl, distribute 10 μl/well of inhibitor to the 384 well assay plate. Distribute the first row of the inhibitor dilution plate to alternate rows of the assay plate starting at A1. The tip spacing of the multichannel pipette will correctly skip alternate columns. […] Mix 20 ml assay buffer and 20 μl 1M DTT. […] Using the a distributor such as a Multidrop 384, add 30 μl/well to all wells of the assay plate and read in fluorescent spectrophotomoter such as an Ascent. Fluorescent readings, (excitation and emission wavelengths 390 nm and 460 nm respectively, set using bandpass filters) reflecting the extent of enzyme cleavage of the fluorescent substrate, notwithstanding the inhibitor, are linear rate fitted for each well. […] Potential inhibitors are screened using the above assay with variable concentrations of test compound. Reactions were initiated by addition of enzyme to buffered solutions of substrate and inhibitor.

[1] = target: human recombinant cathepsin K (Homo sapiens (Human), UniProt P43235); test: Determination of cathepsin K proteolytic catalytic activity (Ki); format: biochemical
human recombinant cathepsin K, sequence (P43235 115-329): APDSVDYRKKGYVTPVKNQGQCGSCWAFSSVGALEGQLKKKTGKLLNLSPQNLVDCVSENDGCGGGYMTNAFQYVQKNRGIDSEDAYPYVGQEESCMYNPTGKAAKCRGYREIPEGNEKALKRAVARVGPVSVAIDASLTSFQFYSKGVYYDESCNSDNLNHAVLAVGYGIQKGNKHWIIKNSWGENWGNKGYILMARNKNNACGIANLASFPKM
Description: Determination of Cathepsin K Proteolytic Catalytic Activity
Convenient assays for cathepsin K are carried out using human recombinant enzyme, such as that described in PDB.
The recombinant cathepsin K can be expressed in a variety of commercially available expression systems including E coli, Pichia and Baculovirus systems. The purified enzyme is activated by removal of the prosequence by conventional methods.
The enzyme concentration used was 5 nM. The stock substrate solution was prepared at 10 mM in DMSO. Screens were carried out at a fixed substrate concentration of 60 μM and detailed kinetic studies with doubling dilutions of substrate from 250 μM. The total DMSO concentration in the assay was kept below 3%. All assays were conducted at ambient temperature. Product fluorescence (excitation at 390 nm, emission at 460 nm) was monitored with a Labsystems Fluoroskan Ascent fluorescent plate reader. Product progress curves were generated over 15 minutes following generation of AMC product.
(§1) Potential inhibitors are screened using the above assay with variable concentrations of test compound. Reactions were initiated by addition of enzyme to buffered solutions of substrate and inhibitor. Ki values were calculated according to equation 1.
where v0 is the velocity of the reaction, V is the maximal velocity, S is the concentration of substrate with Michaelis constant of KM, and I is the concentration of inhibitor.

[2] = Metabolic stability in liver microsomes (HLM CLint); format: in vitro ADME; conditions: human
Description: (§2) Alternatively, an analogous stability assay is carried out in human or monkey whole blood and/or commercially available liver microsomes, such as XEN 025.

human cathepsin L = human cathepsin L (Homo sapiens (Human), UniProt P07711); test: Cathepsin L Ki; format: biochemical
human cathepsin L, sequence (P07711 114-333): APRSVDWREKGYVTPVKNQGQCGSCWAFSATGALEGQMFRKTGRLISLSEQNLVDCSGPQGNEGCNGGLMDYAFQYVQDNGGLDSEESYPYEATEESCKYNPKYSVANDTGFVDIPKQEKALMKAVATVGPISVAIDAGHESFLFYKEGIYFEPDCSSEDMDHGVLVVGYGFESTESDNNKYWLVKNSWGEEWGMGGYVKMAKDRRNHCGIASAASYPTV
Description: The procedure above with the following amendments is used for the determination of Ki for cathepsin L.
The enzyme is commercially available human cathepsin L (for example Calbiochem). The substrate is H-D-Val-Leu-Lys-AMC available from Bahcem. The assay buffer is 100 mM sodium acetate 1 mM EDTA, pH5.5) The DMSO stock (10 mM in 100% DMSO) is diluted to 10% in assay buffer. Enzyme is prepared at 5 nM concentration in assay buffer plus 1 mM dithiothreitol just before use. 2 ul of 10 mM inhibitor made up in 100% DMSO is dispensed into row A. 10 μl of 50 μM substrate (=1/200 dilution of 10 mM stock in DMSO, diluted in assay buffer)
as §1

[3] = Metabolic stability in whole blood (CLint); format: in vitro ADME
Description: as §2

[4] = reference markers for the Caco-2 assay; cited from earlier work
Caco-2 permeability = conditions: human
[5] = In vivo mouse PK, oral administration (FIG. 1); conditions: male C57BI mice, oral 60 μmol/kg in 1% Methocel A4C; compared with Example 2 of WO2008 007107
Text: FIG. 1 depicts plasma concentration against time for male C57BI mice orally administered a compound of the invention or a compound of the prior art.
Various embodiments of the invention will now be described by way of illustration only with reference to the following Examples and FIG. 1 which depicts plasma concentration against time for male C57BI mice orally administered a compound of the invention or a compound of the prior art.

human cathepsin S, sequence (P25774 115-331): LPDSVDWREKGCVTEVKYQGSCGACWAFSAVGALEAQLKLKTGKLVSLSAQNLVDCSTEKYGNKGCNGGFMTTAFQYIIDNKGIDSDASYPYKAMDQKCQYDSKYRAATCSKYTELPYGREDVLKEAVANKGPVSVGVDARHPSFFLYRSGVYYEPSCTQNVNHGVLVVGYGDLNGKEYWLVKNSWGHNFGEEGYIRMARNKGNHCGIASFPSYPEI

Molecule	Ki (human cathepsin S; Test 2 or unnumbered test) [nM]	Ki ([1]; Test 1, class symbols) [nM]	Ki ([1]; Test 2 or unnumbered test) [nM]	Ki (human cathepsin L; Test 1, class symbols) [nM]	Ki (human cathepsin L; Test 2 or unnumbered test) [nM]	% absorption in man [4] [%]	also measured
N—((S)-1-((3aS,6R,6aS)-6-methoxy-oxodihydro-2H-furo[3,2-b]pyrrol-4(5H,6H,6aH)-yl)-4-methyl-oxopentan-2-yl)-4-(2-(4-methylpiperazine-1-yl)thiazol-4-yl)benzamide							papp value (Caco-2 cells): 9e-07 cm/s
C#C[C@@H]1CN(C(=O)[C@H](CC(C)C)NC(=O)c2ccc(-c3csc(N4CCN(C)CC4)n3)cc2)[C@@H]2C(=O)CO[C@H]12 [Example 1, N-[1-6-(ethynyl-3-oxo-hexahydro-furo[3,2-b]pyrrole-4-carbonyl)-3-methyl-butyl]-4-[2-(4-methyl-piperazin-1-yl)thiazol-4-yl]-benzamide]	25000	< 50	1.6	1000 to 5000	2000		microsomal CLint [2]: 16 µL/min/mg; Ki (human cathepsin S; Test 1, class symbols): > 10000 nM; microsomal CLint ([3]; whole blood): 3 µL/min/mg
CC(C)C[C@H](NC(=O)c1ccc(-c2csc(N3CCN(C)CC3)n2)cc1)C(=O)N1C[C@@H](C)[C@H]2OCC(=O)[C@H]21 [comparative example]							microsomal CLint [2]: 49 µL/min/mg; estimated / calculated whole blood half life ([3]; calculated from whole blood CLint): little over an hour; microsomal CLint ([3]; whole blood): 9 µL/min/mg; whole blood CLint value ([3]; whole blood): 9 µL/min/mg
N[C@@H](Cc1ccccc1)C(=O)O [L-Phenylalanine]						100	
C#C[C@@H]1CN(C(=O)[C@H](CC(C)C)NC(=O)c2ccc(-c3csc(N4CCN(C)CC4)n3)c(F)c2)[C@@H]2C(=O)CO[C@H]12 [Example 3, N-[1-6-(ethynyl-3-oxo-hexahydro-furo[3,2-b]pyrrole-4-carbonyl)-3-methyl-butyl]-3-fluoro-4-[2-(4-methyl-piperazin-1-yl)thiazol-4-yl]-benzamide]		< 50	4	501 to 1000	1400		
CN(Cc1cnc2nc(N)nc(N)c2n1)c1ccc(C(=O)N[C@@H](CCC(=O)O)C(=O)O)cc1 [Methotrexate]						20	
C#C[C@@H]1CN(C(=O)[C@H](CC(C)C)NC(=O)c2ccc(-c3nc(N4CCN(C)CC4)sc3F)cc2)[C@@H]2C(=O)CO[C@H]12 [Example 2, N-[1-6-(ethynyl-3-oxo-hexahydro-furo[3,2-b]pyrrole-4-carbonyl)-3-methyl-butyl]-4-[5-fluoro-2-(4-methyl-piperazin-1-yl)thiazol-4-yl]-benzamide]	21000	< 50	1.1	1000 to 5000	1700		Papp at 120 min, 10 µM (Caco-2 permeability): 9.1 ×10⁻⁶ cm/s; Ki (human cathepsin S; Test 1, class symbols): > 10000 nM; in vivo exposure (Cmax or AUC) [5]: very much greater
OC[C@@H](O)[C@@H](O)[C@H](O)[C@H](O)CO [Mannitol]						16	

Now from value to molecule, other results behind:

Ki (human cathepsin S; Test 2 or unnumbered test) [nM]	Ki ([1]; Test 1, class symbols) [nM]	Ki ([1]; Test 2 or unnumbered test) [nM]	Ki (human cathepsin L; Test 1, class symbols) [nM]	Ki (human cathepsin L; Test 2 or unnumbered test) [nM]	Molecule	% absorption in man [4] [%]	also measured
6100					CC(C)C[C@H](NC(=O)c1ccc(-c2csc(N3CCN(C)CC3)n2)cc1)C(=O)N1C[C@@H](C=C(Br)Br)[C@H]2OCC(=O)[C@H]21 [Ref Ex 9]		
		2.7		300	CC(C)=C[C@@H]1CN(C(=O)[C@H](CC(C)C)NC(=O)c2ccc(-c3nc(N4CCN(C)CC4)sc3F)cc2)[C@@H]2C(=O)CO[C@H]12 [Example 4, N-[1-6-(dimethylvinyl-3-oxo-hexahydro-furo[3,2-b]pyrrole-4-carbonyl)-3-methyl-butyl]-4-[5-fluoro-2-(4-methyl-piperazin-1-yl)thiazol-4-yl]-benzamide]		
